The text below walks through data of patent US20250074891A1 (Anaxis Pharma Pty Ltd., priority 2021, published 2025).

Where only a bound is given, the exact number is not on record here.

Usually Kd stands for a measure of binding affinity in units of concentration.

What all share (settings): Table 35
The target of assay [1] is MLKL (full length) (Homo sapiens (Human), UniProt Q8NB16). Description: KINOMEscan binding assay, MLKL (full length). How it is done:
(§1) Kinase assays. For most assays, kinase-tagged T7 phage strains were grown in parallel in 24-well blocks in an E. coli host derived from the BL21 strain. E. coli were grown to log-phase and infected with T7 phage from a frozen stock (multiplicity of infection=0.4) and incubated with shaking at 32° C. until lysis (90-150 minutes).
(§2) The Hill Slope was set to −1.

Assay [2] has as its target RIP3 (Homo sapiens (Human), UniProt Q9Y572). Description: KINOMEscan binding assay, RIP3. How it is done: as §1, §2
The target of assay [3] is RIP1 (Homo sapiens (Human), UniProt Q13546). Description: KINOMEscan binding assay, RIP1.
RIP1, sequence (Q13546 whole entry): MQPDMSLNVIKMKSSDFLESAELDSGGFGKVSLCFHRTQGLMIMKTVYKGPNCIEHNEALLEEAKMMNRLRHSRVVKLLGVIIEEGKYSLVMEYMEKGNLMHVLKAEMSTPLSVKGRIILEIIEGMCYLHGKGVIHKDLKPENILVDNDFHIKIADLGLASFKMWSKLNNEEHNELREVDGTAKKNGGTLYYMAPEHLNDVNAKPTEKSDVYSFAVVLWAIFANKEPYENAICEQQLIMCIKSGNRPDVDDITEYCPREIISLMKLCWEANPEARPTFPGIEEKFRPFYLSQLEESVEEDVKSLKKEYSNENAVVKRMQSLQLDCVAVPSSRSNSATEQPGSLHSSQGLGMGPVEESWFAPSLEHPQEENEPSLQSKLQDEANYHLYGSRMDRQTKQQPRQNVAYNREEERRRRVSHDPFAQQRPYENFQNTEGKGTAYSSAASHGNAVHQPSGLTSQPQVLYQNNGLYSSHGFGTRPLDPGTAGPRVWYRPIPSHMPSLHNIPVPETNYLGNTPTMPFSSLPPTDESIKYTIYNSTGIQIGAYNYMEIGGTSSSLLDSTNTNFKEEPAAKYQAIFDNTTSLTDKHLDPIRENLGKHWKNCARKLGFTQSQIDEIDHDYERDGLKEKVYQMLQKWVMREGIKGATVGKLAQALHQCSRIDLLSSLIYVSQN

RIP3, sequence (Q9Y572 whole entry): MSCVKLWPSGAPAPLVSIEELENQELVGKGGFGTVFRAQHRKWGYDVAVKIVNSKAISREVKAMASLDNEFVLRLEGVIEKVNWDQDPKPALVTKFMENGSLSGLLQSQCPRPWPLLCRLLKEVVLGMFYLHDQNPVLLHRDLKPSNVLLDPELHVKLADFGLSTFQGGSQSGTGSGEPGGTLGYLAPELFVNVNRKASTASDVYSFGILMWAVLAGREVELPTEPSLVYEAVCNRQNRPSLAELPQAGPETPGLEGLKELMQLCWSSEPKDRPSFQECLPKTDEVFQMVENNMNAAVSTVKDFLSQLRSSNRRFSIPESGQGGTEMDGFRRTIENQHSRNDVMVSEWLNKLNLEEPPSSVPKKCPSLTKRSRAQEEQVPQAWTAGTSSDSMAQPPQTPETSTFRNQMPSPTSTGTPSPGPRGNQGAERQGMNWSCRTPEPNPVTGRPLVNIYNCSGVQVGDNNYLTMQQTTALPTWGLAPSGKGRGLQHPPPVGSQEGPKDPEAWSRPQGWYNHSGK
MLKL (full length), sequence (Q8NB16 whole entry): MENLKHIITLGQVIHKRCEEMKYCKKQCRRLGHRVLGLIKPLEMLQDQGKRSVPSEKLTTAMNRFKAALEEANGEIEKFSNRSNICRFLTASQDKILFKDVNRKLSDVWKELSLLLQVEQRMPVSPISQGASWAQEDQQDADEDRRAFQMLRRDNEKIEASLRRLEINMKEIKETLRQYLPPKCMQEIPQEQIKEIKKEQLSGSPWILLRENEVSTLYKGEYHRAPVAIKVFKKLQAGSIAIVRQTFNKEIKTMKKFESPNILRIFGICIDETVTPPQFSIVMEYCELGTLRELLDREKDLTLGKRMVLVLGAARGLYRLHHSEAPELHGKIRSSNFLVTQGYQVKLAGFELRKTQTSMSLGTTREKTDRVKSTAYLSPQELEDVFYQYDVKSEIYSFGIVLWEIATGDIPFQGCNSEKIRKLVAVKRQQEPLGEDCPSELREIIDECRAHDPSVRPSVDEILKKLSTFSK

For `CCS(=O)(=O)Nc1ccc(-c2n[nH]c(Nc3cncc(OC)n3)c2C(N)=O)cc1` [Compound 99, 3-(4-(ethylsulfonamido)phenyl)-5-((6-methoxypyrazin-2-yl)amino)-1H-pyrazole-4-carboxamide], the Kd in assay [1] is under 0.01 µM; in assay [2], over 30 µM; in assay [3], over 30 µM.

For the compound `CCS(=O)(=O)Nc1ccc(-c2n[nH]c(Nc3cnn(C)c3)c2C(N)=O)cc1` [Compound 100, 3-(4-(ethylsulfonamido)phenyl)-5-((1-methyl-1H-pyrazol-4-yl)amino)-1H-pyrazole-4-carboxamide], the values for the Kd in assay [1], in assay [2] and in assay [3] were under 0.01 µM, over 30 µM and over 30 µM, respectively.

For `CCS(=O)(=O)Nc1ccc(-c2n[nH]c(Nc3cnc(C)cn3)c2C(N)=O)cc1` [Compound 101, 3-(4-(ethylsulfonamido)phenyl)-5-((5-methylpyrazin-2-yl)amino)-1H-pyrazole-4-carboxamide], the values for the dissociation constant Kd in assay [1], in assay [2] and in assay [3] were under 0.01 µM, over 30 µM and over 30 µM, respectively.

Regarding `CCS(=O)(=O)Nc1ccc(-c2n[nH]c(Nc3ccc(C#N)cc3)c2C(N)=O)cc1` [Compound 102, 5-((4-cyanophenyl)amino)-3-(4-(ethylsulfonamido)phenyl)-1H-pyrazole-4-carboxamide], the equilibrium dissociation constant (Kd) in assay [1] was under 0.01 µM; in assay [2], over 30 µM; in assay [3], over 30 µM.

Regarding `CCS(=O)(=O)Nc1ccc(-c2n[nH]c(Nc3ccnc(C(F)(F)F)c3)c2C(N)=O)cc1` [Compound 104, 3-(4-(ethylsulfonamido)phenyl)-5-((2-(trifluoromethyl)pyridin-4-yl)amino)-1H-pyrazole-4-carboxamide], the Kd is under 0.01 µM in assay [1], over 30 µM in assay [2] and over 30 µM in assay [3].

On to `CCOc1cc(Nc2[nH]nc(-c3ccc(NS(=O)(=O)CC)cc3)c2C(N)=O)ccn1` [Compound 105, 5-((2-ethoxypyridin-4-yl)amino)-3-(4-(ethylsulfonamido)phenyl)-1H-pyrazole-4-carboxamide], for which the Kd in assay [1] was under 0.01 µM; in assay [2], over 30 µM; in assay [3] it was over 30 µM.

In the case of `CCS(=O)(=O)Nc1ccc(-c2n[nH]c(Nc3ccnc(OCC(F)F)c3)c2C(N)=O)cc1` [Compound 106, 5-((2-(2,2-difluoroethoxy)pyridin-4-yl)amino)-3-(4-(ethylsulfonamido)phenyl)-1H-pyrazole-4-carboxamide], the Kd was under 0.01 µM in assay [1], over 30 µM in assay [2] and over 30 µM in assay [3].

For `CCS(=O)(=O)Nc1ccc(-c2n[nH]c(Nc3cnccn3)c2C(N)=O)cc1` [Compound 108, 3-(4-(ethylsulfonamido)phenyl)-5-(pyrazin-2-ylamino)-1H-pyrazole-4-carboxamide], the results for the Kd in assay [1], in assay [2] and in assay [3] were under 0.01 µM, over 30 µM and over 30 µM, respectively.

In the case of `COCCOc1cc(Nc2[nH]nc(-c3ccc(NS(=O)(=O)CC#N)cc3)c2C(N)=O)ccn1` [Compound 110, 3-(4-((cyanomethyl)sulfonamido)phenyl)-5-((2-(2-methoxyethoxy)pyridin-4-yl)amino)-1H-pyrazole-4-carboxamide], the results for the dissociation constant Kd in assay [1], in assay [2] and in assay [3] were under 0.01 µM, over 30 µM and over 30 µM, respectively.

In the case of `CCS(=O)(=O)Nc1ccc(-c2n[nH]c(Nc3cc(C)nc(C)c3)c2C(N)=O)cc1` [Compound 112, 5-((2,6-dimethylpyridin-4-yl)amino)-3-(4-(ethylsulfonamido)phenyl)-1H-pyrazole-4-carboxamide], the Kd in assay [1] is under 0.01 µM; in assay [2] it was over 30 µM; in assay [3], over 30 µM.

For the compound `CCS(=O)(=O)Nc1ccc(-c2n[nH]c(Nc3ccnc(C)c3)c2C(N)=O)cc1` [Compound 113, 3-(4-(ethylsulfonamido)phenyl)-5-((2-methylpyridin-4-yl)amino)-1H-pyrazole-4-carboxamide], the Kd is under 0.01 µM in assay [1], over 30 µM in assay [2] and over 30 µM in assay [3].

`CCS(=O)(=O)Nc1ccc(-c2n[nH]c(Nc3ccnc(OC)n3)c2C(N)=O)cc1` [Compound 123, 3-(4-(ethylsulfonamido)phenyl)-5-((2-methoxypyrimidin-4-yl)amino)-1H-pyrazole-4-carboxamide]: the dissociation constant (Kd) in assay [1] was under 0.01 µM; in assay [2], over 30 µM; in assay [3] it was over 30 µM.

Regarding `CCS(=O)(=O)Nc1ccc(-c2n[nH]c(Nc3ccccc3)c2C(N)=O)cc1` [Compound 124, 3-(4-(ethylsulfonamido)phenyl)-5-(phenylamino)-1H-pyrazole-4-carboxamide], the Kd is under 0.01 µM in assay [1], over 30 µM in assay [2] and over 30 µM in assay [3].

As for `CCS(=O)(=O)Nc1ccc(-c2n[nH]c(Nc3cccc(C(F)(F)F)n3)c2C(N)=O)cc1` [Compound 126, 3-(4-(ethylsulfonamido)phenyl)-5-((6-(trifluoromethyl)pyridin-2-yl)amino)-1H-pyrazole-4-carboxamide], the Kd in assay [1] is under 0.01 µM; in assay [2], over 30 µM; in assay [3], over 30 µM.

In the case of `NC(=O)c1c(-c2ccc(NS(=O)(=O)CC(F)(F)F)cc2)n[nH]c1Nc1cnccn1` [Compound 137, 5-(pyrazin-2-ylamino)-3-(4-((2,2,2-trifluoroethyl)sulfonamido)phenyl)-1H-pyrazole-4-carboxamide], the Kd was under 0.01 µM in assay [1], over 30 µM in assay [2] and over 30 µM in assay [3].

With `NC(=O)c1c(-c2ccc(NS(=O)(=O)CC(F)(F)F)cc2OCc2ccc(F)cc2)n[nH]c1Nc1cnccn1` [Compound 139, 3-(2-((4-fluorobenzyl)oxy)-4-((2,2,2-trifluoroethyl)sulfonamido)phenyl)-5-(pyrazin-2-ylamino)-1H-pyrazole-4-carboxamide], the Kd was under 0.01 µM in assay [1], over 30 µM in assay [2] and over 30 µM in assay [3].

With `NC(=O)c1c(-c2ccc(NS(=O)(=O)CC(F)(F)F)cc2OCc2ccc(F)cc2)n[nH]c1Nc1cccc(C(F)(F)F)n1` [Compound 140, 3-(2-((4-fluorobenzyl)oxy)-4-((2,2,2-trifluoroethyl)sulfonamido)phenyl)-5-((6-(trifluoromethyl)pyridine-2-yl)amino)-1H-pyrazole-4-carboxamide], the Kd in assay [1] was under 0.01 µM; in assay [2], over 30 µM; in assay [3], over 30 µM.

For `COc1cnc(Nc2[nH]nc(-c3ccc(NS(=O)(=O)CC(F)(F)F)c(OCc4ccc(F)cc4)c3)c2C(N)=O)cn1` [Compound 143, 3-(3-((4-fluorobenzyl)oxy)-4-((2,2,2-trifluoroethyl)sulfonamido)phenyl)-5-((5-methoxypyrazin-2-yl)amino)-1H-pyrazole-4-carboxamide], the Kd in assay [1] was under 0.01 µM; in assay [2], over 30 µM; in assay [3], over 30 µM.

For `NC(=O)c1c(-c2ccc(NS(=O)(=O)CC(F)(F)F)c(OC3(c4ccc(F)cc4)CC3)c2)n[nH]c1Nc1cnccn1` [Compound 144, 3-(3-(1-(4-fluorophenyl)cyclopropoxy)-4-((2,2,2-trifluoroethyl)sulfonamido)phenyl)-5-(pyrazin-2-ylamino)-1H-pyrazole-4-carboxamide], the Kd in assay [1] is under 0.01 µM; in assay [2], over 30 µM; in assay [3] it was over 30 µM.
